# According to patent US11738008B2, “N-methyl-D-aspartic acid receptor modulators” (Emory University, priority 2018, dated 2023):
# Where two headings read alike, the source gives them in different places.
# Tests used:
# κ-opioid receptor = κ-opioid receptor (Homo sapiens, UniProt P41145); experiment: NIMH PDSP radioligand binding, κ-opioid receptor; settings: for remaining activity at 10 µM: read-out: Radioligand binding in 10 μM compound (% control); for Ki: read-out: pKi values from non-linear regression of radioligand competition binding isotherms (converted)
# Description: (§1) The NIMH PDSP is Directed by Bryan L. Roth at the University of North Carolina at Chapel Hill and Project Officer Jamie Driscoll at NIMH, Bethesda Md., USA. Radioligand binding was measured in the presence of 10 μM 1180-420 and 1180-447. […] For experimental details please refer to the PDSP web site https://pdsp.unc.edu/ims/investigator/web/. Both 1180-420 and 1180-447 were also tested at AMPA, nicotinic acetylcholine, serotonin, GABA, and glycine ion channels using a two-electrode voltage clamp assay.
# (§2) Receptor binding profiles of compound 1180-447 were generously provided by the National Institute of Mental Health's Psychoactive Drug Screening Program, Contract # HHSN-271-2013-00017-C(NIMH PDSP). The NIMH PDSP is directed by Bryan L. Roth at the University of North Carolina at Chapel Hill and Project Officer Jamie Driscoll at NIMH, Bethesda Md., USA. Radioligand binding was measured in the presence of 10 μM 1180-447. […] For experimental details please refer to the PDSP web site https://pdsp.unc.edu/ims/investigator/web/.
# (§3) The NIMH PDSP is Directed by Bryan L. Roth at the University of North Carolina at Chapel Hill and Project Officer Jamie Driscoll at NIMH, Bethesda Md., USA. Radioligand binding was measured in the presence of 10 μM 1180-420. […] For experimental details please refer to the PDSP web site https://pdsp.unc.edu/ims/investigator/web/.
# α4β2-nACh = molecular target: T1, α4β2-nACh (Homo sapiens, UniProt P17787+P43681); experiment: Off-target two-electrode voltage clamp assay, α4β2-nACh; format: cell-based; settings: 10 μM, mean ± SEM
# T1 construct: expressed in transfected cells
# Description: as §1
# GABAA = experiment: NIMH PDSP radioligand binding, GABAA
# Description: as §1, §2, §3
# δ-opioid receptor = δ-opioid receptor (Homo sapiens, UniProt P41143); experiment: NIMH PDSP radioligand binding, δ-opioid receptor; settings: read-out: Radioligand binding in 10 μM compound (% control)
# Description: as §1, §2, §3
# μ-opioid receptor = μ-opioid receptor (Homo sapiens, UniProt P35372); experiment: NIMH PDSP radioligand binding, μ-opioid receptor; settings: read-out: Radioligand binding in 10 μM compound (% control)
# Description: as §1, §2, §3
# 5-HT5A = molecular target: T2, 5-HT5A (Homo sapiens, UniProt P47898); experiment: NIMH PDSP radioligand binding, 5-HT5A; settings: read-out: Radioligand binding in 10 μM compound (% control)
# T2 construct: NIMH PDSP (assay provider)
# Description: as §1, §2, §3
# 5-HT3 = molecular target: T3, 5-HT3 (Homo sapiens, UniProt P46098); experiment: NIMH PDSP radioligand binding, 5-HT3; settings: read-out: Radioligand binding in 10 μM compound (% control)
# T3 construct: NIMH PDSP (assay provider)
# Description: as §1, §2, §3
# D1 = molecular target: T4, D1 (Homo sapiens, UniProt P21728); experiment: NIMH PDSP radioligand binding, D1; settings: read-out: Radioligand binding in 10 μM compound (% control)
# T4 construct: NIMH PDSP (assay provider)
# Description: as §1, §2, §3
# α1-Glycine = molecular target: T5, α1-Glycine (Homo sapiens, UniProt P23415); experiment: Off-target two-electrode voltage clamp assay, α1-Glycine; format: cell-based; settings: 10 μM, mean ± SEM
# T5 construct: expressed in transfected cells
# Description: as §1
# 5-HT2C = molecular target: T6, 5-HT2C (Homo sapiens, UniProt P28335); experiment: NIMH PDSP radioligand binding, 5-HT2C; settings: for remaining activity at 10 µM: read-out: Radioligand binding in 10 μM compound (% control)
# T6 construct: NIMH PDSP (assay provider)
# T6 sequence (P28335 33-458): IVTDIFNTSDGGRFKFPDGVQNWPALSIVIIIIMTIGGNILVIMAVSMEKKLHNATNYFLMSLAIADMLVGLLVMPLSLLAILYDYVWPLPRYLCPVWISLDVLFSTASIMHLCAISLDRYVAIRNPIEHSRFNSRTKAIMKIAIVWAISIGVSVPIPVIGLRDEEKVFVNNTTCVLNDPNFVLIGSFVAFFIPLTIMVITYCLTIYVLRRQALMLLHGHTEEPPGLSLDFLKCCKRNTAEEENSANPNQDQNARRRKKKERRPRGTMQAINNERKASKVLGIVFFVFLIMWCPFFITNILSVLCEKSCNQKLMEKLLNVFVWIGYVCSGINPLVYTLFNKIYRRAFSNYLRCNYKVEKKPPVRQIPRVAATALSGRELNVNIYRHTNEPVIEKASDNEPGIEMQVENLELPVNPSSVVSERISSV
# Description: as §1, §2, §3
# rat GluN1/GluN2D [1] = molecular target: rat GluN1/GluN2D (Rattus norvegicus, UniProt P35439+Q62645); experiment: Two-electrode voltage clamp recordings in Xenopus laevis oocytes, potentiation of GluN1/GluN2D; format: cell-based
# Description: (§4) Xenopus laevis oocytes were purchased unfertilized from Ecocyte (Austin, Tex.). The oocytes were injected with mRNA to express recombinant rat GluN1/GluN2A, GluN1/GluN2B, GluN1/GluN2C, and GluN1/GluN2D and two-electrode voltage clamp (TEVC) recordings were performed. Drs. S. Heinemann (Salk Institute), S. Nakanishi (Kyoto University), and P. Seeburg (University of Heidelberg) provided the cDNAs for rat GluN1-1a (GenBank accession numbers U11418 and U08261, referred to as GluN1 henceforth), GluN2A (D13211), GluN2B (U11419), GluN2C (M91563), and GluN2D (D13213). GluN2C and GluN2D were altered according to literature precedent. […] To prevent the current increase typically seen during experiments with oocytes expressing GluN1/GluN2A receptors, the oocytes were either injected with 20 nL of 100 mM K-BAPTA (potassium 1,2-bis(o-aminophenoxy)ethane-N,N,N,N-tetraacetic acid) or pretreated with 50 μM BAPTA-AM (1,2-bis(o-aminophenoxy)ethane-N,N,N,N-tetraacetic acid tetraacetoxymethyl ester) for 10 minutes.
# rat GluN1/GluN2D [2] = molecular target: rat GluN1/GluN2D (Rattus norvegicus, UniProt Q62645); experiment: as above; format: cell-based
# Description: as §4
# [3] = nephelometer, oocyte recording solution
# 5-HT3A = molecular target: T7, 5-HT3A (Homo sapiens, UniProt P46098); experiment: Off-target two-electrode voltage clamp assay, 5-HT3A; format: cell-based; settings: 10 μM, mean ± SEM
# T7 construct: expressed in transfected cells
# Description: as §1
# Sequence of κ-opioid receptor (P41145 whole entry): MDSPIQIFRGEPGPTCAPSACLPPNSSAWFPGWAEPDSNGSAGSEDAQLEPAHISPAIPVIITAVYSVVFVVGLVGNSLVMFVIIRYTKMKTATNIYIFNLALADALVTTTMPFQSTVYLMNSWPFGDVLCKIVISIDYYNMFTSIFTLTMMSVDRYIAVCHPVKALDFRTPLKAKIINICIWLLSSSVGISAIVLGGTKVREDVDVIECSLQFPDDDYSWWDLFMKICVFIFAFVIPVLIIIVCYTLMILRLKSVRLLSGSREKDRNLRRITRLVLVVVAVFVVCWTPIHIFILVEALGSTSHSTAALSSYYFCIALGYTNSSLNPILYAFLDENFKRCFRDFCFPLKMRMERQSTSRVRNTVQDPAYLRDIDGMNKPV
# T4 sequence (P21728 whole entry): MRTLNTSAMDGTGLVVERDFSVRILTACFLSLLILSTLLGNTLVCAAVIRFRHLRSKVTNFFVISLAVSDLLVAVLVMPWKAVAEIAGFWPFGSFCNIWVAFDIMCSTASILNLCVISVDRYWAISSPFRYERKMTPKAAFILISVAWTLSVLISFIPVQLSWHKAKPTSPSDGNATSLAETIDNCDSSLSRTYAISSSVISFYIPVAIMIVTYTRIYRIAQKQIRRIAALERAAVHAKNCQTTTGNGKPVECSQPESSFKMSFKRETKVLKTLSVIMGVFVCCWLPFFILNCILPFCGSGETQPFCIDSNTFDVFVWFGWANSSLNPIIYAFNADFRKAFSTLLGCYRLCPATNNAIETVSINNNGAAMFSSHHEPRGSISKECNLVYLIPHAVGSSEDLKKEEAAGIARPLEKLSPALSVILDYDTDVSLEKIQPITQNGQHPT
# T3 sequence (P46098 24-478, species assumed): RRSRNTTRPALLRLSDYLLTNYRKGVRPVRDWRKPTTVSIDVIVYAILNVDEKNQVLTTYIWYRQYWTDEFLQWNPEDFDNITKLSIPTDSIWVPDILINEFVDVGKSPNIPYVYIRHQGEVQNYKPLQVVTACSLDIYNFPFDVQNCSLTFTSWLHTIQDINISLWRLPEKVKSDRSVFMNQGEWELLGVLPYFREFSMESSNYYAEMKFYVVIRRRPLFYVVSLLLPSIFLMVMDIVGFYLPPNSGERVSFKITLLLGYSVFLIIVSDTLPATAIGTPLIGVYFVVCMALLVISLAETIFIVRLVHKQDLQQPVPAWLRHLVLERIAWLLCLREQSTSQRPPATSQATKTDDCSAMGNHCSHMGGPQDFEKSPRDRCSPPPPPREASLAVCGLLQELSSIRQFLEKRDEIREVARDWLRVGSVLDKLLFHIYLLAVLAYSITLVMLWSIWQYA
# T1 sequence (P43681 29-627 limits assumed): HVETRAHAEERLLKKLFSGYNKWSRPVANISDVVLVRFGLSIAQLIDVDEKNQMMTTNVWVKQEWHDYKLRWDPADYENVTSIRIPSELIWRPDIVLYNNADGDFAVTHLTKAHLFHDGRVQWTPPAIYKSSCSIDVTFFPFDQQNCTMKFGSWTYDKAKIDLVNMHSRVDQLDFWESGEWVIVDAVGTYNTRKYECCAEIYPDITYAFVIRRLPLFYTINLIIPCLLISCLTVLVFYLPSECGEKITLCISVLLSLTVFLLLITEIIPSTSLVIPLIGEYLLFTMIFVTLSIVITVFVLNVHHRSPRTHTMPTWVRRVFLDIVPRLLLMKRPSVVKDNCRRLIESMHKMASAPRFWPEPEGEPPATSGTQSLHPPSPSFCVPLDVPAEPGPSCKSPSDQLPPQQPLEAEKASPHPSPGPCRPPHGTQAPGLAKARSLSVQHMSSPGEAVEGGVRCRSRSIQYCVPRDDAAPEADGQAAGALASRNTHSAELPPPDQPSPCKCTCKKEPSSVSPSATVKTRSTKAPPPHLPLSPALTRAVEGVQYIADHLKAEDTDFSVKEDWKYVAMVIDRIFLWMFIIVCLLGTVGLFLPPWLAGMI
# T1 sequence (P17787 26-502): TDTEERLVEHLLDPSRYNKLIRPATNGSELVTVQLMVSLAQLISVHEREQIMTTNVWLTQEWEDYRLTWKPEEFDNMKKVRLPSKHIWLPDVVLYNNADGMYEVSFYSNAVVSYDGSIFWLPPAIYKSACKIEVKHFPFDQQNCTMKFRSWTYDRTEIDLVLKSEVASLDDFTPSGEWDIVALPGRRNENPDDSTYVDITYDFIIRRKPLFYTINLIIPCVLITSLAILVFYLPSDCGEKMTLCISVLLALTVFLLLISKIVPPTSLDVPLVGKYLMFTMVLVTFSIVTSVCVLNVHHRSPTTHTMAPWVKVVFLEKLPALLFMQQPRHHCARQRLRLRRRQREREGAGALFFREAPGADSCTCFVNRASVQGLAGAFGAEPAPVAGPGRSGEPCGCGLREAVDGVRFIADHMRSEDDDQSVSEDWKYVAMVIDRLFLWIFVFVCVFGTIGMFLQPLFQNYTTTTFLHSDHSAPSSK
# Sequence of μ-opioid receptor (P35372 whole entry, species assumed): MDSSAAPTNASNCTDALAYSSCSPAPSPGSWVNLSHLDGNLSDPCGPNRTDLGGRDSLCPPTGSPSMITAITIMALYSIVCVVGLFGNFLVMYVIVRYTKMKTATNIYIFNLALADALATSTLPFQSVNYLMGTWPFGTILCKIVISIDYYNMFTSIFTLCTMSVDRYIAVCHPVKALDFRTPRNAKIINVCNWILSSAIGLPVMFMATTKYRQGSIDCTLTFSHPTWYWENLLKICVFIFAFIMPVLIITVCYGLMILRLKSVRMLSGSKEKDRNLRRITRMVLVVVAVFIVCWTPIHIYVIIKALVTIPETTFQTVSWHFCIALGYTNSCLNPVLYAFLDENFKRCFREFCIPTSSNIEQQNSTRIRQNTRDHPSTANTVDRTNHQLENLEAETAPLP
# T2 sequence (P47898 whole entry, species assumed): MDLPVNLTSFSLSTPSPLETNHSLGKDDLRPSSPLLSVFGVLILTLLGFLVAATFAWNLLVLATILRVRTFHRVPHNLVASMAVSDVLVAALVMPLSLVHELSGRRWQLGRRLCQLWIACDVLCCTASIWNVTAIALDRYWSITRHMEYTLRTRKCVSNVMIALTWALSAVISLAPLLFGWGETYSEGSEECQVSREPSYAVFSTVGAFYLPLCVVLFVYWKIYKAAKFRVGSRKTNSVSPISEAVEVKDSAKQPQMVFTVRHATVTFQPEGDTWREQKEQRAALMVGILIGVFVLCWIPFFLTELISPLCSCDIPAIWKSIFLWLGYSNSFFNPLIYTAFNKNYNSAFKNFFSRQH
# Sequence of δ-opioid receptor (P41143 whole entry): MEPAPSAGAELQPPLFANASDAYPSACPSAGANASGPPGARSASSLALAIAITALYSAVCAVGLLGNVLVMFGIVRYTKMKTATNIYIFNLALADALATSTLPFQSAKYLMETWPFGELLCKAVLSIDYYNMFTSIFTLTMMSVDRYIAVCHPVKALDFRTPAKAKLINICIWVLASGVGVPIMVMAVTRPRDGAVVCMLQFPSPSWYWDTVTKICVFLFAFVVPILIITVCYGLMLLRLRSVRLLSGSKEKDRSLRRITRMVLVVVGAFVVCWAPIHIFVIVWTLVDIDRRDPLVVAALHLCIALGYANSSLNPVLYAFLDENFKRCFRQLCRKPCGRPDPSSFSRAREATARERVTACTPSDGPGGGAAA
# Sequence of rat GluN1/GluN2D (Rattus norvegicus, UniProt Q62645) (Q62645 28-1323, other chains not shown): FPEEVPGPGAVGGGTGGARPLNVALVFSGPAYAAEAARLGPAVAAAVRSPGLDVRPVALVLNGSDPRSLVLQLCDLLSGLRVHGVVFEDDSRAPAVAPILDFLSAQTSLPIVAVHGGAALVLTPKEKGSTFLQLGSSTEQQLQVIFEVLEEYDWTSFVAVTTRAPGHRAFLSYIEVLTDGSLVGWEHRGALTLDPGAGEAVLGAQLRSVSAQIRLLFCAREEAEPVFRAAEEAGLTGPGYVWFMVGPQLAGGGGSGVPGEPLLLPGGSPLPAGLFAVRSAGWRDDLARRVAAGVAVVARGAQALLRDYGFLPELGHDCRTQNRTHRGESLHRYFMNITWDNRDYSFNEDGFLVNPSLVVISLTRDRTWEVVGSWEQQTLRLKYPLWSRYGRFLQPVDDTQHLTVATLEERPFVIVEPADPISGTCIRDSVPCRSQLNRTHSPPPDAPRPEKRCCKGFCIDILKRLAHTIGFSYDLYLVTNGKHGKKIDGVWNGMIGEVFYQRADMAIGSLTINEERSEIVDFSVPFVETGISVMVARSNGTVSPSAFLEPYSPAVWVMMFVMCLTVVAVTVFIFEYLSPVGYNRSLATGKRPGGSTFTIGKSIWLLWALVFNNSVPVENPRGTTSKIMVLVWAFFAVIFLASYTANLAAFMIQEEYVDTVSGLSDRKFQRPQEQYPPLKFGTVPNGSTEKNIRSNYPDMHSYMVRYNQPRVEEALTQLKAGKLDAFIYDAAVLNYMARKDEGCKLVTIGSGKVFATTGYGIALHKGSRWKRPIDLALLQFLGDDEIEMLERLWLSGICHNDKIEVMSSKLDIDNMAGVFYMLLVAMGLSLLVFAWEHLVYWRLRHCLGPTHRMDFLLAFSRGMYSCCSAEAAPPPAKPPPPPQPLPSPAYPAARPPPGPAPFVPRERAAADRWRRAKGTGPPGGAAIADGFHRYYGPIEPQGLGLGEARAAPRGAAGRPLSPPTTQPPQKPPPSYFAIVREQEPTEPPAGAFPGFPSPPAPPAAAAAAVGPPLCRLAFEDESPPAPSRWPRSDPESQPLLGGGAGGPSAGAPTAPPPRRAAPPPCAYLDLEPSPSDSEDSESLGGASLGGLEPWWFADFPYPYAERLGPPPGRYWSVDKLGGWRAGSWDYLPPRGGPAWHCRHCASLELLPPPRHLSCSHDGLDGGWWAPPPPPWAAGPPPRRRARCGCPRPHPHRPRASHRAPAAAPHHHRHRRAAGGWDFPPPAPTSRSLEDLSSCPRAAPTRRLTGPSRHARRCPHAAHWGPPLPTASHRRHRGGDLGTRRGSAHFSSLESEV
# Sequence of rat GluN1/GluN2D (Rattus norvegicus, UniProt P35439+Q62645) (Q62645 28-1323, other chains not shown): as above
# T7 sequence (P46098 24-478, species assumed): as the sequence (P46098 24-478, species assumed) above
SMILES,remaining activity at 10 µM (κ-opioid receptor) [%],Ki (κ-opioid receptor) [nM],% control response (α4β2-nACh) [% control response],Radioligand binding in 10 μM compound (% control) (GABAA),remaining activity at 10 µM (δ-opioid receptor) [%],remaining activity at 10 µM (μ-opioid receptor) [%],remaining activity at 10 µM (5-HT5A) [%],remaining activity at 10 µM (5-HT3) [%],remaining activity at 10 µM (D1) [%],% control response (α1-Glycine) [% control response],remaining activity at 10 µM (5-HT2C) [%],EC50 (rat GluN1/GluN2D [1]; read-out: GluN2D EC50) [nM],"GluN2D Max % (rat GluN1/GluN2D [2]; maximal response, current without potentiator = 100%) [%]",Solubility [3] [µM],% control response (5-HT3A) [% control response],Ki (5-HT2C; read-out: pKi values from non-linear regression of radioligand competition binding isotherms (converted)) [nM],EC50 (rat GluN1/GluN2D [1]; read-out: GluN2D pEC50 [95% CI] (converted)) [nM],GluN2D (max) (%) (rat GluN1/GluN2D [2])
"COc1ccc(OCC2c3cccn3CCN2C(=O)c2cccc(Cl)c2)cc1 (stereo not shown) [1180-420, (3-Chlorophenyl)(1-((4-methoxyphenoxy)methyl)-3,4-dihydropyrrolo[1,2-a]pyrazin-2(1H)-yl)methanone]",32,1580,56.4 ± 5.3,110,89,104,95,116,59,77.6 ± 4.9,113,2300,374,,,,,
"COc1ccc(OCC2c3cccn3CC(=O)N2Cc2cccc(C(F)(F)F)c2)cc1 (racemic) [1180-447, 1-((4-Methoxyphenoxy)methyl)-2-(3-(trifluoromethyl)benzyl)-1,2-dihydropyrrolo[1,2-a]pyrazin-3(4H)-one]",47,1580,52.7 ± 6.3,118,93,99,92,68,87,,32,,,57,98.1 ± 10.4,> 10000,1580,(396) %
